Test results from patent US11026963B2, “Senolytic compositions and uses thereof” (Rubedo Life Sciences, Inc., priority 2018, dated 2021).

What was measured:
[1] = test system: senescent C57BL/6 mouse hepatocytes; test: Effect of FURGal on doxorubicin-induced senescent hepatocytes after in vivo administration; conditions: doxorubicin 25 mg/kg i.p.; FURGal 140 mg/kg 4 and 6 days later; livers after additional 4 days; FIG. 3C
Method: Two groups of C57BL/6 mice (N=5/group) were injected intraperitoneally with doxorubicin (25 mg/kg) to induce hepatocellular senescence. 4 and 6 days later groups were injected with PBS or FURGal (140 mg/kg) (101). A third group of 5 animals served as controls. After an additional 4 days livers were removed and sectioned (30 μm) before staining for SA-β-Gal (6 fields/animal were assessed) (FIGS. 3A and 3B).

[2] = test system: Mouse embryonic fibroblast cells (MEFs); test: Viability of proliferating or senescent mouse embryonic fibroblasts (DAPI/PI staining); assay type: cell-based; conditions: 4 days
Method: Mouse embryonic fibroblast cells were incubated with 300 nM doxorubicin for 24 hrs to induce senescence. Cells were washed and after incubation in media for 7 days, senescence was confirmed by staining for SA-β-Gal (Itahana et al., Methods Mol. Biol. 371 (2007) 21-31) and lack of incorporation of 5-ethynyl-2′-deoxyuridine (EdU) (see Yu et al., J. Immunol. Methods 350 (2009) 29-35).
Proliferating or senescent MEFs were treated with increasing concentrations of either FURGal (101) or 5-fluorouridine (FUR) (102) for 4 days. Cells were washed and stained with 4′,6-diamidino-2-phenylindole (DAPI) and propidium iodide (PI) and the fraction of viable cells was assessed from the ratio of PI-positive nuclei over PI-negative nuclei.

C57BL/6 mice = test: Comparative toxicity of FURGal and FUR to C57BL/6 mice; assay type: in vivo; conditions: six days after treatment
Method: Equimolar doses of (101)(160 mg/kg) and (102) (100 mg/kg) were administered by single dose intraperitoneal injection to 2 groups of mice (N=3 each). Six days after treatment blood cell counts were determined by standard methods (FIG. 2A), bone marrow cells from femur were counted (FIG. 2B) and spleen weights (FIG. 2C) determined to compare the toxicity of the two drugs.

[3] = test system: Normal human fibroblasts (IMR90); test: Compound toxicity towards normal proliferative, senescent or quiescent fibroblasts (XTT cell viability assay); assay type: cell-based; conditions: IC50 against normal, proliferating cells divided by IC50 versus senescent (doxorubicin-induced) cells, three days treatment
Method: Normal human fibroblasts (IMR90) and patient-derived β-galactosidase (GLB1) or α-fucosidase (FUCA1) deficient cells were used to determine change in cell viability after exposure to compound. Cells were cultured with DMEM and 10% heat inactivated FBS under a controlled atmosphere of 5% carbon dioxide and 5% oxygen, […] and confirmed by the absence of senescence associated β-galactosidase (SA-β-Gal) staining and the capacity to re-enter the cell cycle. Senescence was induced by treatment with doxorubicin and confirmed by SA-β-Gal positive staining and the lack of DNA replication. Cells were treated with compound for three days. Cell viability was determined by mitochondrial dehydrogenase activity (XTT assay. Cayman Chemical) at ten concentrations of the tested compound. To generate dose-response curves, data was fitted to a four-parameter Hill function and the IC50 was determined at Y=0.5 viability. The senolytic index (S.I.) for each compound was determined by dividing the IC50 against normal, proliferating cells by the IC50 versus senescent cells. Senolytic index data is shown in Table 1 with compounds having S.I.<1 (−), S.I>1 (+), S.I.>5 (++) and S.I>10 (+++).

[4] = test system: senescent lung cells in C57BL/6 mice; test: Senolytic effect of compound (119) on doxorubicin-induced senescent lung cells after in vivo administration; parameters: species or system mouse
Method: Four groups of C57BL/6 mice (N=9/group) were injected intravenously with doxorubicin (15 mg/kg) to induce senescence in lung tissue. Five days later groups were injected with vehicle or compound (119) (aka RBO-019) (10, 20 or 40 mg/kg i.v.). After an additional 3 days lungs were removed and the left lobes sectioned before staining for SA-β-Gal as previously described (FIGS. 5A and 5B). […] This senolytic effect was also corroborated by using quantitative PCR to detect mRNA levels of Cdkn2a (p16^INK4a). Expression levels were reported relative to Actb as the reference gene.

[5] = compared with seco product (78); Tietze et al.; cited from earlier work

Row | Structure (SMILES) | senescent hepatocytes (SA-β-Gal staining of liver sections) [1] | toxicity towards senescent MEFs ([2]; doxorubicin-induced senescent MEFs, FIG. 1B) | cell viability / toxicity towards proliferating cells ([2]; proliferating MEFs, increasing concentrations (as high as 4 mM), FIG. 1A) | toxicity towards platelets, neutrophils, lymphocytes and bone marrow cells (C57BL/6 mice; equimolar single i.p. dose: (101) 160 mg/kg, (102) 100 mg/kg, FIG. 2A, 2B) | effects on spleen weight (C57BL/6 mice; single i.p. dose 160 mg/kg, in comparison to FUR (102) 100 mg/kg, FIG. 2C) | Senolytic Index (S.I.) [3] | SA-β-Gal staining in lung sections ([4]; doxorubicin 15 mg/kg i.v., 10, 20 or 40 mg/kg i.v. five days later, lungs after additional 3 days, FIG. 5C) | Cdkn2a gene expression in lung ([4]; quantitative PCR, relative to Actb, 10, 20 or 40 mg/kg i.v., FIG. 5D) | fold less cytotoxic than hydrolyzed seco product (78) [5]
1 | O=c1[nH]c(=O)n([C@@H]2O[C@H](CO[C@@H]3O[C@H](CO)[C@H](O)[C@H](O)[C@H]3O)[C@@H](O)[C@H]2O)cc1F [(101), 5-fluorouridine-5′-O-β-D-galactopyranoside] | numerical trend for a reduction | equitoxic | completely non-toxic | negligible toxicity | minimal effects | +++ (S.I>10 (+++)) | – | – | –
2 | CC(=O)O[C@H]1[C@H](OC(C)=O)[C@H](ONC(=O)/C=C/c2ccc(CNCCc3c(C)[nH]c4ccccc34)cc2)O[C@@H](C)[C@H]1OC(C)=O [(119), (2S,3R,4R,5S,6S)-2-Methyl-6-(((E)-3-(4-(((2-(2-methyl-1H-indol-3-yl)ethyl)amino)methyl)phenyl)acrylamido)oxy)tetrahydro-2H-pyran-3,4,5-triyl triacetate] | – | – | – | – | – | +++ (S.I>10 (+++)) | dose-dependent reduction | dose-dependent reduction | –
3 | C[C@@H](Cl)[C@@H]1CN(C(=O)c2cc3cc(OCCN(C)C)ccc3[nH]2)c2cc(O[C@@H]3O[C@H](CO)[C@H](O)[C@H](O)[C@H]3O)c3ccccc3c21 [Compound (77)] | – | – | – | – | – | – | – | – | greater than 4000 fold
